{"source": "patent EP0214743B1", "about": "“Use of quinoline derivatives in the manufacture of medicaments for the treatment of cerebrovascular disorders and cerebral senility” (BEECHAM GROUP PLC, priority 1985, dated 1987)", "key": {"[1]": {"tested_on": "Triethyltin-induced cerebral oedema", "assay": "Triethyltin-induced cerebral oedema in the rat", "type": "in vivo", "details": "twice daily for 5 days, Wistar rats intoxicated with triethyltin chloride 2 mg/kg", "description": "1. Triethyltin-induced cerebral oedema in the rat.\nThe cerebral oedema is induced by oral administrations repeated for 5 consecutive days - one administration per day - of triethyltin chloride at a dose of 2 mg/kg. The test compound is also administered orally twice daily as aqueous solution or suspension (1ml/100g body-weight); these administrations are given during the 5 days of intoxication with tin. Three groups of 10 male specific pathogen-free (SPF) Wistar rats of 280 ± 10g body-weight are used: • 1 control group • 1 group intoxicated with triethyltin • 1 group intoxicated with triethyltin and treated with the studied compound. The rats are killed on the evening of the fifth day; the brain is removed, weighed fresh and after desiccation to constant weight and the water content of each brain is calculated: [H₂O] = fresh weight - dry weight. [formula] The following are then calculated: • the mean water content (M ± Sm%) of each group; • the protection index P due to the administered compound: [formula] The significance is evaluated by the Mann-Whitney test."}, "[2]": {"tested_on": "rat cortex", "assay": "Effect of test compound on oxygen tension (pO₂) of rat cortex", "type": "in vivo", "details": "for Increase in pO₂ (torr): normoxic cortex, normal anaesthetized rats; for Ischaemic Cortex Increase in pO₂ (torr) (mean ± sem): both carotid arteries ligated 3 weeks previously, N=5", "description": "2. Effect of test compound on oxygen tension (pO₂) of rat cortex.\nMale rats (280-350g) were anaesthetized with sodium-thio pentone (100 mg/kg i.p.). The arterial blood pressure was recorded from a femoral artery.\nThe cranium was opened with a trephine (0.6 mm) above the praecentral cortex. The dura mata was carefully removed and a multiwire oxygen sensitive electrode was placed on the cortex.\nThe electrode current was continuously recorded.\nAfter a stabilisation period the test compound was administered. The change in the cortical pO₂, produced by compound administration, was calculated for each animal.\nThese measurements were performed in normal animals and in animals in which both carotid arteries had been ligated 3 weeks previously in order to induce cortical ischaemia."}}, "note": "Marks after values point to notes of the source that are not given here.", "data": [{"compound": "CC1(C)C=C(N2CCCC2=O)c2cc(Br)ccc2N1", "note": "[Compound B, 6-Bromo-2,2-dimethyl-4-(2-oxo-1-pyrrolidinyl)-1,2-dihydroquinoline]", "values": [{"measurement": "% inhibition of cerebral oedema formation", "setting": "[1]; 2x12.5 mg/kg p.o.", "result": "41.4** %"}, {"measurement": "% inhibition of cerebral oedema formation", "setting": "[1]; dosage cell empty in this row, p.o.", "result": "100** %"}]}, {"compound": "CC1(C)C=C(N2CCCC2=O)c2cc(C#N)ccc2N1", "note": "[Compound C, 6-Cyano-2,2-dimethyl-4-(2-oxo-1-pyrrolidinyl)-1,2-dihydroquinoline]", "values": [{"measurement": "% inhibition of cerebral oedema formation", "setting": "[1]; 2x1 mg/kg p.o.", "result": "53.3** %"}, {"measurement": "% inhibition of cerebral oedema formation", "setting": "[1]; 2x12.5 mg/kg p.o.", "result": "100** %"}]}, {"compound": "CC1(C)Nc2ccc(C#N)cc2[C@@H](N2CCCC2=O)[C@@H]1O", "note": "(relative stereo) [Compound A, trans-2,2-dimethyl-6-cyano-4-(2-oxo-1-pyrrolidinyl)-1,2,3,4-tetrahydroquinolin-3-ol]", "values": [{"measurement": "% inhibition of cerebral oedema formation", "setting": "[1]; 2x2.5 mg/kg p.o.", "result": "30* %"}, {"measurement": "Increase in pO₂ (torr)", "setting": "[2]; 0.4 mg/kg i.v., N=3", "result": "2.1 ± 2.0", "unit": "torr"}, {"measurement": "Ischaemic Cortex Increase in pO₂ (torr) (mean ± sem)", "setting": "[2]; 0.5 mg/kg i.v.", "result": "0.9 ± 0.9", "unit": "torr"}, {"measurement": "Increase in pO₂ (torr)", "setting": "[2]; 0.8 mg/kg i.v., N=2", "result": "4.1 ± 0.9", "unit": "torr"}, {"measurement": "Ischaemic Cortex Increase in pO₂ (torr) (mean ± sem)", "setting": "[2]; 1.0 mg/kg i.v.", "result": "1.9 ± 1.9", "unit": "torr"}, {"measurement": "effect on pO₂ in the rat normoxic and chronic ischaemic cortex", "setting": "[2]; summary in words of Table 2", "result": "increases pO₂"}]}]}
